Reference: patent US20200102349A1, “PEPTIDE REAGENTS AND METHODS FOR DETECTION AND TARGETING OF DYSPLASIA, EARLY CANCER AND CANCER” (THE REGENTS OF THE UNIVERSITY OF MICHIGAN, priority 2014, published 2020)

Legend:
[1] = test system: colonic dysplasia (flat lesions and polyps); assay: In vivo NIR fluorescence endoscopy of colon in CPC;Apc mouse; conditions: for mean (±SD) log of the T/B ratio: topical 100 μM, 5 min incubation
Method: For the in vivo fluorescence images of mouse colon, the T/B ratios for flat dysplasia and polyps were log-transformed to improve normality. The fold-change between classification pairs was estimated using the anti-log of the difference in the log-transformed data. Differences in results between the experimental and control peptides were evaluated on t-test. *P<0.05 was considered significant. Similar methods were used to evaluate the ex vivo fluorescence images of human colonic specimens. The results were plotted on a receiver-operator characteristic (ROC) curve. Co-localization of peptide and antibody binding was evaluated on Pearson's correlation coefficient. All analyses were performed using custom Matlab software (MathWorks Inc).
Mouse imaging studies were performed with approval of the University of Michigan Committee on the Use and Care of Animals (UCUCA). The mice were housed in pathogen-free conditions and supplied water ad libitum under controlled conditions of humidity (50±10%), light (12/12 hour light/dark cycle) and temperature (25° C.). Anesthesia was induced and maintained via a nose cone with inhaled isoflurane mixed with oxygen at a concentration of 2-4% at a flow rate of ˜0.5 L/min. The colon was first rinsed with tap water to remove mucous and debris. White light illumination was used first to identify anatomic landmarks, including polyps, mucosal folds, colonic segment, and distance of endoscope tip from anus, to register images with histology. The Cy5.5-labeled peptides were delivered at a concentration of 100 μM in a volume of 1.5 mL through the 3 Fr instrument channel. After 5 min for incubation, the colon was rinsed 3× with a tap water to remove the unbound peptides. After imaging was completed, the mice were euthanized. The colon was resected, and divided along the longitudinal axis. Flat lesions and polyps were identified on fluorescence, excised perpendicular to the mucosal surface, and processed for histology (H&E). We collected images from mice (n=5) that ranged in age from 7 to 10 months.
Imaging was performed using a small animal endoscope (Karl Storz Veterinary Endoscopy).^39 A xenon light source provides white light illumination via a fluid light cable. A diode-pumped solid state laser (TechnicaLaser Inc) provides excitation at λex=671 nm. The laser beam is expanded to a diameter of 3 mm to fill the aperture of the light cable. The laser power at the tip of the endoscope is <2 mW. The white light images reflect off a dichroic mirror (Semrock Inc, # FF685-Di02-25×36, λc=685 nm), and are focused by an achromatic doublet (Edmund Optics Inc, #32-323). They pass through a neutral density filter (OD 1), and are detected by a color camera (Point Grey Research, # GX-FW-28S5C-C). The fluorescence images pass through the dichroic and a band pass filter (Semrock Inc, # FF01-716/40-25, λC=716 nm, Δλ=40 nm), and are focused on a monochrome camera (Point Grey Research, # GX-FW-28S5M-C). All videos (1932×1452 resolution) are recorded at 15 frames per sec via a firewire connection.
White light and fluorescence videos were exported in avi format with 24 (RGB) and 8 (grayscale) bit digital resolution for the color and fluorescence images, respectively. […] Individual frames were exported using custom Matlab software. On the fluorescence images, 3 regions of interest (ROI, 25×25 pixels) were picked at random within the dysplastic lesion and within adjacent areas of normal-appearing mucosa. The mean intensities within these ROI's on the fluorescence images were measured. The target to-background (T/B) ratio for each image was determined by ratioing the mean intensities of these two ROIs.

EGFR = EGFR (Homo sapiens, UniProt P00533); assay: siRNA knockdown of EGFR in HT29 cells, confocal fluorescence microscopy; assay type: cell-based; design: endogenous in cells; host or cells: HT29 human colorectal adenocarcinoma cells (ATCC)
Method: HT29, SW480, and SW620 cells (˜10^3) were grown on cover slips to ˜80% confluence. The cells were washed 1× with PBS and incubated with 5 μM of QRH*-Cy5.5 and PEH*-Cy5.5 for 3 min at RT. The cells were then washed 3× in PBS, fixed with 4% paraformaldehyde (PFA) for 5 min, washed 1× with PBS, and then mounted on glass slides with ProLong Gold reagent containing DAPI (Invitrogen). Confocal fluorescence images were collected with FITC, Cy5.5, and DAPI filters (Leica Inverted SPSX Confocal Microscope System) using a 63× oil-immersion objective. Fluorescence intensities from 5 cells in 2 independent images were quantified using custom Matlab (Mathworks) software.
We used siRNA to knockdown expression of EGFR in HT29 cells. We used ON-TARGETplus human EGFR siRNA and ON-TARGETplus non-targeting pool (Thermo Scientific) per manufacturer's protocol. 5 μL of siRNA at 5 μM/L concentration was transfected into HT29 cells using DharmaFECT (Thermo Scientific). QRH*-Cy5.5 and PEH*-Cy5.5 were incubated with HT29 siEGFR and siCL cells. The cells were fixed with either 4% PFA or methanol. A 1:1000 dilution of primary monoclonal mouse anti-EGFR antibody (Thermo Scientific, # MS-396, clone 199.12, IgG2a isotype) was incubated overnight at 4° C. Afterwards, the cells were washed 3× with PBS, and further incubated with 1:500 dilution of AF488-labeled secondary goat anti-mouse IgG antibody (Life Technologies, # A-11029) for 1 hour at RT, washed 3×, and then mounted on glass slides with ProLong Gold reagent containing DAPI (Invitrogen). Confocal fluorescence images were collected with FITC, Cy5.5, and DAPI filters using a 63× oil-immersion objective.
We validated specific binding of QRH*-Cy5.5 to EGFR on siRNA knockdown in HT29 cells. On confocal microscopy, QRH*-Cy5.5 (red), FIG. 2A, and AF488-labeled anti-EGFR (green), FIG. 2B, bind strongly to the surface (arrows) of control HT29 cells (transfected with siCL, non-targeting siRNA), scale bars 30 μm. […] The results (mean±std) for QRH*-Cy5.5, anti-EGFR AF488, and PEH*-Cy5.5 to control cells (siCL) were 7.8±1.7, 3.1±1.0, and 1.6±0.3 AU, respectively, and to EGFR knockdown cells (siEGFR) were 2.5±0.8, 1.0±0.4, and 1.9±0.7 AU, respectively, *P<0.01 by paired t-test, FIG. 2G. Results are an average of 10 cells from 2 images performed independently. EGFR expression is shown on Western blot, FIG. 12H.

[2] = test system: dysplastic crypts in polyps; assay: Immunofluorescence on mouse colon polyp specimens; conditions: OCT embedded polyp specimens
Method: Specimens of flat dysplasia in mouse colon were formalin fixed and processed as described above. Specimens of polypoid dysplasia in mouse colon were frozen in OCT (Sakura Finetek), cut in 10 μm sections, and incubated with 1:1000 dilution of primary goat anti-mouse anti-EGFR antibody and AF488-labeled secondary antibody, as described previously. The sections were washed 3× with PBS, fixed with 4% PFA for 10 min, washed with PBS 1×, and mounted with Prolong Gold reagent containing DAPI (Invitrogen). Confocal microscopy images were collected with DAPI, AF488, and Cy5.5 filters. Adjacent sections were processed for histology (H&E).

Substance: QRHKPRE (SEQ ID NO: 1) with Cy5.5 fluorophore attached via a GGGSK linker (SEQ ID NO: 18) on the C-terminus [QRH*-Cy5.5]
- mean fold-difference of T/B, QRH*-Cy5.5 versus PEH*-Cy5.5 ([1]; flat lesions (n=15)): 2.05
- mean (±SD) log of the T/B ratio ([1]; flat lesions (n=15)): 0.420±0.103
- mean fold-difference of T/B, QRH*-Cy5.5 versus PEH*-Cy5.5 ([1]; polyps (n=15)): 2.43
- mean (±SD) log of the T/B ratio ([1]; polyps (n=15)): 0.572±0.181
- NIR fluorescence signal from polyp and flat lesions in vivo ([1]; topical, distal colon, 5 min): increased intensity
- fluorescence intensity (mean±std) (EGFR; EGFR knockdown HT29 cells (siEGFR)): 2.5±0.8 AU
- fluorescence intensity (mean±std) (EGFR; control HT29 cells (siCL, non-targeting siRNA)): 7.8±1.7 AU
- fluorescence for binding to dysplastic crypts [2]: increased fluorescence
